Patent publication US9211310B2, “Use of a Chinese medicine composition in preparing medicaments for treating secondary prevention of myocardial infarction” (TASLY PHARMACEUTICAL GROUP CO., LTD, priority 2010, dated 2015)

Tested on: patients after acute myocardial infarction
Assay: TCM symptom score, total and single (chest pain, chest tightness, short breath, fatigue, palpitation, spontaneous perspiration, pale complexion), same clinical trial
Type: in vivo, human
Parameters: total score of TCM symptom, Mean / total score of TCM symptom, Min / total score of TCM symptom, Max / total score of TCM symptom, Md / change of total score of TCM symptom, Mean / change of total score of TCM symptom, Max / change of total score of TCM symptom, Md: scale not given here
Conditions: FAS
Excerpt: 3508 patients who were in accordance with the diagnostic standards of AMI for 28 days to 2 years and differentiated as Qi deficiency and blood stagnation syndrome by TCM were studied. 0.5 g Chinese medicine composition prepared by the method of EXAMPLE 1 (Coded as QSYQ) was administrated half an hour after meal, 3 times per day.
They included the overall survival time, angina pectoris score, TCM symptom score and life quality score, where angina pectoris score, TCM symptom score and life quality score were evaluated at randomization, in 1st, 3rd, 6th, 9th, 12th month after treatment and 18th month after follow-up.
The analysis method referred to the angina pectoris score.

[1] = 3 months after treatment-baseline
[2] = 6 months after treatment-baseline

CC(=O)Oc1ccccc1C(=O)O [Control group, aspirine]
total score of TCM symptom, Md (3 months after treatment): 10.00 | total score of TCM symptom, Mean (3 months after treatment): 10.90 | total score of TCM symptom, Min (3 months after treatment): 0.00 | change of fatigue 0, % of patients [1]: (64.74%) | change of fatigue 0, number of patients [1]: 1107 | change of fatigue 2, % of patients [1]: (24.56%) | change of fatigue 2, number of patients [1]: 420 | change of fatigue 4, % of patients [1]: (4.09%) | change of fatigue 4, number of patients [1]: 70 | change of fatigue 6, % of patients [1]: (0.94%) | change of fatigue 6, number of patients [1]: 16 | change of fatigue −2, % of patients [1]: (5.03%) | change of fatigue −2, number of patients [1]: 86 | change of fatigue −4, % of patients [1]: (0.53%) | change of fatigue −4, number of patients [1]: 9 | change of fatigue −6, % of patients [1]: (0.12%) | change of fatigue −6, number of patients [1]: 2 | change of pale complexion 0, number of patients [1]: 1387 | change of pale complexion 0, percent of patients [1]: (81.21%) | change of pale complexion 1, number of patients [1]: 259 | change of pale complexion 1, percent of patients [1]: (15.16%) | change of pale complexion −1, number of patients [1]: 62 | change of pale complexion −1, percent of patients [1]: (3.63%) | change of palpitation 0, number of patients [1]: 1125 | change of palpitation 0, percent of patients [1]: (65.79%) | change of palpitation 1, number of patients [1]: 415 | change of palpitation 1, percent of patients [1]: (24.27%) | change of palpitation 2, number of patients [1]: 43 | change of palpitation 2, percent of patients [1]: (2.51%) | change of palpitation 3, number of patients [1]: 6 | change of palpitation 3, percent of patients [1]: (0.35%) | change of palpitation −1, percent of patients [1]: (6.96%) | change of palpitation −2, number of patients [1]: 2 | change of palpitation −2, percent of patients [1]: (0.12%) | change of palpitation −3, number of patients [1]: 0 | change of palpitation −3, percent of patients [1]: (0.00%) | change of short breath 0, % of patients [1]: (71.29%) | change of short breath 0, number of patients [1]: 1219 | change of short breath 2, % of patients [1]: (20.47%) | change of short breath 2, number of patients [1]: 350 | change of short breath 4, % of patients [1]: (2.16%) | change of short breath 4, number of patients [1]: 37 | change of short breath 6, % of patients [1]: (0.53%) | change of short breath 6, number of patients [1]: 9 | change of short breath −2, % of patients [1]: (5.44%) | change of short breath −2, number of patients [1]: 93 | change of short breath −4, % of patients [1]: (0.12%) | change of short breath −4, number of patients [1]: 2 | change of short breath −6, % of patients [1]: (0.00%) | change of short breath −6, number of patients [1]: 0 | change of spontaneous perspiration 0, number of patients [1]: 1083 | change of spontaneous perspiration 0, percent of patients [1]: (63.37%) | change of spontaneous perspiration 1, number of patients [1]: 392 | change of spontaneous perspiration 1, percent of patients [1]: (22.94%) | change of spontaneous perspiration 2, number of patients [1]: 76 | change of spontaneous perspiration 2, percent of patients [1]: (4.45%) | change of spontaneous perspiration 3, number of patients [1]: 20 | change of spontaneous perspiration 3, percent of patients [1]: (1.17%) | change of spontaneous perspiration −1, percent of patients [1]: (7.08%) | change of spontaneous perspiration −2, number of patients [1]: 15 | change of spontaneous perspiration −2, percent of patients [1]: (0.88%) | change of spontaneous perspiration −3, number of patients [1]: 2 | change of spontaneous perspiration −3, percent of patients [1]: (0.12%) | distribution of total score of TCM symptom: Medium, number of patients (6 months after treatment): 418 | distribution of total score of TCM symptom: Medium, percentage of patients (6 months after treatment): (26.79%) | distribution of total score of TCM symptom: Mild, number of patients (6 months after treatment): 1133 | distribution of total score of TCM symptom: Mild, percentage of patients (6 months after treatment): (72.63%) | distribution of total score of TCM symptom: Severe, number of patients (6 months after treatment): 9 | distribution of total score of TCM symptom: Severe, percentage of patients (6 months after treatment): (0.58%) | fatigue score 0, % of patients (6 months after treatment): (30.27%) | fatigue score 0, number of patients (6 months after treatment): 520 | fatigue score 2, % of patients (6 months after treatment): (61.00%) | fatigue score 2, number of patients (6 months after treatment): 1048 | fatigue score 4, % of patients (6 months after treatment): (7.86%) | fatigue score 4, number of patients (6 months after treatment): 135 | fatigue score 6, % of patients (6 months after treatment): (0.87%) | fatigue score 6, number of patients (6 months after treatment): 15 | pale complexion score 0, number of patients (6 months after treatment): 871 | pale complexion score 0, percent of patients (6 months after treatment): (50.70%) | pale complexion score 1, number of patients (6 months after treatment): 657 | pale complexion score 1, percent of patients (6 months after treatment): (38.24%) | pale complexion score 2, number of patients (6 months after treatment): 179 | pale complexion score 2, percent of patients (6 months after treatment): (10.42%) | pale complexion score 3, number of patients (6 months after treatment): 11 | pale complexion score 3, percent of patients (6 months after treatment): (0.64%) | palpitation score 0, number of patients (6 months after treatment): 538 | palpitation score 0, percent of patients (6 months after treatment): (31.32%) | palpitation score 2, number of patients (6 months after treatment): 906 | palpitation score 2, percent of patients (6 months after treatment): (52.74%) | palpitation score 4, number of patients (6 months after treatment): 246 | palpitation score 4, percent of patients (6 months after treatment): (14.32%) | palpitation score 6, number of patients (6 months after treatment): 28 | palpitation score 6, percent of patients (6 months after treatment): (1.63%) | short breath score 0, % of patients (6 months after treatment): (25.03%) | short breath score 0, number of patients (6 months after treatment): 430 | short breath score 2, % of patients (6 months after treatment): (0.06%) | short breath score 2, number of patients (6 months after treatment): 1 | short breath score 3, % of patients (6 months after treatment): (58.09%) | short breath score 3, number of patients (6 months after treatment): 998 | short breath score 6, % of patients (6 months after treatment): (16.30%) | short breath score 6, number of patients (6 months after treatment): 280 | short breath score 9, % of patients (6 months after treatment): (0.52%) | short breath score 9, number of patients (6 months after treatment): 9 | spontaneous perspiration score 0, number of patients (6 months after treatment): 728 | spontaneous perspiration score 0, percent of patients (6 months after treatment): (42.37%) | spontaneous perspiration score 1, number of patients (6 months after treatment): 833 | spontaneous perspiration score 1, percent of patients (6 months after treatment): (48.49%) | spontaneous perspiration score 2, number of patients (6 months after treatment): 144 | spontaneous perspiration score 2, percent of patients (6 months after treatment): (8.38%) | spontaneous perspiration score 3, number of patients (6 months after treatment): 13 | spontaneous perspiration score 3, percent of patients (6 months after treatment): (0.76%) | total score of TCM symptom, Max (6 months after treatment): 34.00 | total score of TCM symptom, Md (6 months after treatment): 9.00 | total score of TCM symptom, Mean (6 months after treatment): 10.04 | total score of TCM symptom, Min (6 months after treatment): 0.00 | change of fatigue 0, % of patients [2]: (56.96%) | change of fatigue 0, number of patients [2]: 974 | change of fatigue 2, % of patients [2]: (28.54%) | change of fatigue 2, number of patients [2]: 488 | change of fatigue 4, % of patients [2]: (6.43%) | change of fatigue 4, number of patients [2]: 110 | change of fatigue 6, % of patients [2]: (1.05%) | change of fatigue 6, number of patients [2]: 18 | change of fatigue −2, % of patients [2]: (6.32%)
